Key:
[1] = test system: human OPN promoter (pOPN1-luc) in A549/OPNluc cells; assay: Luciferase assay: luciferase expression under control of OPN promoter; type: cell-based; settings: for EC50 value relative to respective IC50 value: EC50 luciferase assay vs IC50 WST assay; for EC50: Homo sapiens, 48±4 hours, read-out: EC50 (concentration for 50% inhibition of luciferase expression under control of OPN promoter)
From the text: (§1) A reporter vector pOPN1-luc obtained by inserting a human OPN promoter sequence (−765 to 23) into the multiple cloning site of pGL-3 basic vector (Promega) expresses luciferase when transfected into animal cells. This pOPN1-luc was transfected into a human non-small cell lung cancer-derived cell line A549 together with pPUR (Clontech) that expresses a puromycin resistance gene (puromycin-N-acetyl-transferase gene), and cells that could grow in a puromycin-supplemented medium and expressed luciferase were selected. The selected cells were named A549/OPNluc cells and used for observation of luciferase expression inhibitory effect under control of OPN promoter, as described later.
(§2) A test compound was added to a culture liquid containing A549/OPNluc cells to observe its influence on the amount of luciferase expressed in the cells. Here, it can be considered that when the test compound has cytotoxity or cell growth-suppressing effect, the total expression level of luciferase is reduced due to a reduction in the number of living cells that depends on the concentration of the test compound, and therefore the luciferase expression inhibitory effect of the test compound under control of OPN promoter cannot be properly evaluated. For this reason, WST assay for quantification of cell proliferation ability or cell viability by colorimetric measurement was first performed to determine IC50 (concentration for 50% inhibition of cell growth) of the test compound for cell growth. Then, luciferase activity measurement was performed to determine EC50 (concentration for 50% inhibition of luciferase expression) of the test compound for luciferase expression under control of OPN promoter.
The same steps as in the above-described WST assay were performed in which only DMSO (control) or the diluted test compound (sample) solution was added in an amount of 0.5 μL to each well containing the cell suspension to achieve 200-fold dilution, and the solution in each well was mixed with a vortex mixer, and the 96-well plate was incubated in a CO2 incubator (at 37° C. and 5% CO2) for 48±4 hours.
A luciferase reagent was prepared by dissolving Luciferase Assay Substrate (hereinafter, referred to as “LAS”) supplied in Luciferase Assay Systems (Promega: Cat# E1500) with Luciferase Assay Buffer (LAB). 5× Cell Culture Lysis Reagent (hereinafter, referred to as “CCLR”) was diluted with water 5-fold to prepare 1×CCLR.
After the incubation for 48±4 hours, the medium in each well was completely removed, and 50 μL of 1×CCLR was dispensed into each well. The 96-well plate was allowed to stand at room temperature for 30 minutes, and then 1×CCLR in each well was used as an assay sample. The luciferase reagent of 100 μL was placed in a tube for chemiluminescence measurement, and 20 μL of the assay sample was added to the tube and mixed with the luciferase reagent to measure chemiluminescence (Relative Luminescence Intensity: RLU) using Tuner Design Luminometer 20/20 (Promega).
(§3) The RLU values of the control wells and the RLU values of the sample wells at each concentration were input into an Excel file, and the percentages of RLU values of the sample wells at each concentration with respect to the average of RLU values of the control wells were determined. From these values, a fitted curve was determined by the method of least squares to calculate EC50.

[2] = test system: A549/OPNluc cells; assay: WST assay (cell growth inhibition); type: cell-based; settings: Homo sapiens, 48±4 hours, WST-1, read-out: IC50 (concentration for 50% inhibition of cell growth)
From the text: as §1, §2
A549/OPNluc cells were suspended in DMEM medium containing 10% fetal calf serum (FCS) and 1% penicillin/streptomycin (P/S) at 3×10^4 cells/mL to obtain a cell suspension, and 100 μL of the cell suspension was dispensed into each well of a 96-well plate. In order to perform the assay in triplicate, 3 wells were prepared for a control group and 3 wells were prepared for each test compound-treated group at each concentration. After the dispensing, the 96-well plate was incubated in a CO2 incubator (at 37° C. and 5% CO2) for 24±4 hours.
The test compound was dissolved in dimethylsulfoxide (DMSO) to obtain a 50 mmol/L solution, and the test compound solution was stored at −80° C. The test compound solution was diluted with DMSO in 2-fold dilution series (usually, in the range of 0.31 mmol/L to 20 mmol/L) to prepare test compound solutions whose concentration varied by two fold for WST assay.
Only DMSO (control) or the diluted test compound (sample) solution was dispensed in an amount of 0.5 μL into each well containing the cell suspension (200-fold dilution). The solution in each well was mixed with a vortex mixer, and then the 96-well plate was incubated in a CO2 incubator (at 37° C. and 5% CO2) for 48±4 hours. Then, 10 μL of Premix WST-1 Reagent (TAKARA BIO INC.) was added to each well. The solution in each well was mixed with a vortex mixer, and then the 96-well plate was incubated at 37° C. and 5% CO2. After 60 minutes or 120 minutes, absorbance values (450 nm) were measured using a microplate reader (Bio-Rad; Benchmark or Thermo Scientific; Varioskan Flash).
as §3, with “absorbance” for “RLU”, “file to determine” for “file, and”, “wells.” for “wells were determined.”, “the determined” for “these”, “IC50.” for “EC50.”

Row | Structure (SMILES) | EC50 value relative to respective IC50 value [1] | EC50 [1] [µM] | IC50 [2] [µM]
1 | CCCCCCCCCCCC(=O)C1=C(C)CC(C)(C)OC1=O [Chemical formula 1] | ½ | 24.4 | 129
2 | CCCCCCCCCCCC(=O)C1=C(C)C[C@H](C)NC1=O [Chemical formula 2] | ½ | 29.5 | 59.1
3 | CCCCCCCC(=O)C1=C(C)C[C@H](C)OC1=O [Chemical formula 7] |  | > 100 | > 100
4 | COC(=O)CCCCCCC(=O)C1=C(C)C[C@H](C)OC1=O [Chemical formula 9, methyl (S)-8-(4,6-dimethyl-2-oxo-5,6-dihydro-2H-pyran-3-yl)-8-Oxooctanoate] |  | > 100 | > 100
5 | CCCC(=O)C1=C(C)C[C@H](C)NC1=O [Chemical formula 10, (S)-3-butanoyl-5,6-dihydro-4,6-dimethyl-1H-pyridin-2-one] |  | 63 | 110
6 | CCCCCCCCCCCC(=O)[C@H]1C(=O)O[C@H](C)C[C@@H]1C [Chemical formula 13] |  | > 50 | > 50
7 | CCCCCCCCCCCC(=O)[C@H]1C(=O)OC(C)(C)C[C@@H]1C [Chemical formula 14] |  | 29.5 | 54.1

Further lines, results first:

Row | EC50 value relative to respective IC50 value [1] | EC50 [1] [µM] | IC50 [2] [µM] | Structure (SMILES)
8 | ½ | 19.7 | 42.5 | CCCCCCCCCCCC(=O)[C@@H]1C(=O)N[C@@H](C)C[C@H]1C [Chemical formula 4]
9 |  | 63 | 129 | CCCCCCCCCCCC(=O)C1=C(C)C[C@H](C)OC1=O [Chemical formula 5]
10 |  | > 100 | > 100 | CCCC(=O)C1=C(C)C[C@H](C)OC1=O [Chemical formula 6]
11 | ½ | 55 | 111 | CCCCCCCCCCCC(=O)C1=C(C)C[C@@H](C)OC1=O [Chemical formula 8]
12 |  | > 100 | > 100 | CCCCCCCC(=O)C1=C(C)C[C@H](C)NC1=O [Chemical formula 11, (S)-5,6-dihydro-4,6-dimethyl-3-octanoyl-1H-pyridin-2-one]
13 |  | > 50 | > 50 | CCCCCCCCCCCC(=O)[C@@H]1C(=O)O[C@@H](C)C[C@H]1C [Chemical formula 12]
14 | ½ | 43.4 | 88 | CCCCCCCCCCCC(O)[C@H]1C(=O)O[C@@H](C)C[C@@H]1C (stereo partly drawn) [Chemical formula 15]
15 | ½ | 31.1 | > 100 | CCCCCCCCCCC/C(OC(C)=O)=C1\C(=O)O[C@@H](C)C[C@@H]1C [Chemical formula 16]
